Assay results reported in ChEMBL document CHEMBL5505958, “Optimization of sequence and chiral content enhances therapeutic potential of tilapia piscidin peptides” (Eur J Med Chem, 2024).
Converted amounts (≈) assume the structure as drawn. The source made the active and inactive calls. No cut-off for these calls is given here.

Legend:
Klebsiella aerogenes [1] = experiment: Antibacterial activity against Enterobacter aerogenes 15630 assessed as inhibition of bacterial growth incubated for 16 to 20 hrs; format: functional; conditions: time 16-20 hrs
Salmonella typhimurium [2] = experiment: Antibacterial activity against Salmonella typhimurium DT104 assessed as inhibition of bacterial growth incubated for 16 to 20 hrs; format: functional, Salmonella enterica subsp. enterica serovar Typhimurium; conditions: Salmonella enterica, time 16-20 hrs
Salmonella enterica [3] = experiment: Antibacterial activity against Salmonella enterica 15455 assessed as inhibition of bacterial growth incubated for 16 to 20 hrs; format: functional; conditions: time 16-20 hrs
Vibrio vulnificus [4] = experiment: Antibacterial activity against Vibrio vulnificus 204 assessed as inhibition of bacterial growth incubated for 16 to 20 hrs; format: functional; conditions: time 16-20 hrs
Yersinia enterocolitica [5] = experiment: Antibacterial activity against Yersinia enterocolitica 13999 assessed as inhibition of bacterial growth incubated for 16 to 20 hrs; format: functional; conditions: time 16-20 hrs
Klebsiella pneumoniae [6] = experiment: Antibacterial activity against Klebsiella pneumoniae BAA 2473 assessed as inhibition of bacterial growth incubated for 16 to 20 hrs; format: functional; conditions: time 16-20 hrs
[7] = tested on: Staphylococcus haemolyticus; experiment: Antibacterial activity against Staphylococcus haemolyticus 15237 assessed as inhibition of bacterial growth incubated for 16 to 20 hrs; format: functional; conditions: time 16-20 hrs
Klebsiella aerogenes [8] = experiment: Bactericidal activity against Enterobacter aerogenes 15630 assessed as inhibition of bacterial growth incubated for 16 to 20 hrs; format: functional; conditions: time 16-20 hrs
Salmonella typhimurium [9] = experiment: Bactericidal activity against Salmonella typhimurium DT104 assessed as inhibition of bacterial growth incubated for 16 to 20 hrs; format: functional, Salmonella enterica subsp. enterica serovar Typhimurium; conditions: Salmonella enterica, time 16-20 hrs
Salmonella enterica [10] = experiment: Bactericidal activity against Salmonella enterica 15455 assessed as inhibition of bacterial growth incubated for 16 to 20 hrs; format: functional; conditions: time 16-20 hrs
Yersinia enterocolitica [11] = experiment: Bactericidal activity against Yersinia enterocolitica 13999 assessed as inhibition of bacterial growth incubated for 16 to 20 hrs; format: functional; conditions: time 16-20 hrs
Klebsiella pneumoniae [12] = experiment: Bactericidal activity against Klebsiella pneumoniae BAA 2473 assessed as inhibition of bacterial growth incubated for 16 to 20 hrs; format: functional; conditions: time 16-20 hrs
[13] = tested on: Staphylococcus haemolyticus; experiment: Bactericidal activity against Staphylococcus haemolyticus 15237 assessed as inhibition of bacterial growth incubated for 16 to 20 hrs; format: functional; conditions: time 16-20 hrs
Rhizopus arrhizus [14] = experiment: Fungicidal activity against Rhizopus oryzae 34550 assessed as inhibition of fungal growth incubated for 72 hrs; format: functional
Escherichia coli [15] = experiment: Antibacterial activity against Escherichia coli 10675 assessed as inhibition of bacterial growth incubated for 16 to 20 hrs in presence of human serum; format: functional; conditions: time 16-20 hrs
Klebsiella oxytoca [16] = experiment: Antibacterial activity against Klebsiella oxytoca 13985 assessed as inhibition of bacterial growth incubated for 16 to 20 hrs in presence of human serum; format: functional; conditions: time 16-20 hrs
Vibrio vulnificus [17] = experiment: Antibacterial activity against Vibrio vulnificus 204 assessed as inhibition of bacterial growth incubated for 16 to 20 hrs in presence of human serum; format: functional; conditions: time 16-20 hrs
Klebsiella pneumoniae [18] = experiment: Antibacterial activity against Klebsiella pneumoniae TL 297 assessed as inhibition of bacterial growth incubated for 16 to 20 hrs in presence of human serum; format: functional; conditions: time 16-20 hrs
Escherichia coli [19] = experiment: Bactericidal activity against Escherichia coli 10675 assessed as inhibition of bacterial growth incubated for 16 to 20 hrs in presence of human serum; format: functional; conditions: time 16-20 hrs
Acinetobacter baumannii = experiment: Bactericidal activity against Acinetobacter baumannii 10591 assessed as inhibition of bacterial growth incubated for 16 to 20 hrs in presence of human serum; format: functional; conditions: time 16-20 hrs
Pseudomonas aeruginosa = experiment: Bactericidal activity against Pseudomonas aeruginosa 19660 assessed as inhibition of bacterial growth incubated for 16 to 20 hrs in presence of human serum; format: functional; conditions: time 16-20 hrs
Klebsiella oxytoca [20] = experiment: Bactericidal activity against Klebsiella oxytoca 13985 assessed as inhibition of bacterial growth incubated for 16 to 20 hrs in presence of human serum; format: functional; conditions: time 16-20 hrs
Vibrio vulnificus [21] = experiment: Bactericidal activity against Vibrio vulnificus 204 assessed as inhibition of bacterial growth incubated for 16 to 20 hrs in presence of human serum; format: functional; conditions: time 16-20 hrs
Klebsiella pneumoniae [22] = experiment: Bactericidal activity against Klebsiella pneumoniae TL 297 assessed as inhibition of bacterial growth incubated for 16 to 20 hrs in presence of human serum; format: functional; conditions: time 16-20 hrs
Enterococcus faecium = experiment: Bactericidal activity against Enterococcus faecium 10067 assessed as inhibition of bacterial growth incubated for 16 to 20 hrs in presence of human serum; format: functional; conditions: time 16-20 hrs
Rhizopus arrhizus [23] = experiment: Fungicidal activity against Rhizopus oryzae 34550 assessed as inhibition of fungal growth incubated for 16 to 20 hrs in presence of human serum; format: functional; conditions: time 16-20 hrs
Klebsiella pneumoniae [24] = experiment: Antibacterial activity against Klebsiella pneumoniae BAA 2473 assessed as inhibition of bacterial growth in presence of 1 microg/ml of trypsin (reference value: 1.56 to 3.13 microM); format: functional
Klebsiella pneumoniae [25] = experiment: Antibacterial activity against Klebsiella pneumoniae BAA 2473 assessed as inhibition of bacterial growth in presence of 0.1 microg/ml of chymotrypsin (reference value: 1.56 to 3.13 microM); format: functional
Klebsiella pneumoniae [26] = experiment: Antibacterial activity against Klebsiella pneumoniae BAA 2473 assessed as inhibition of bacterial growth in presence of 1 microg/ml of chymotrypsin (reference value: 1.56 to 3.13 microM); format: functional
Klebsiella pneumoniae [27] = experiment: Antibacterial activity against Klebsiella pneumoniae BAA 2473 assessed as inhibition of bacterial growth in presence of 1 microg/ml of pepsin (reference value: 1.56 to 3.13 microM); format: functional
Klebsiella pneumoniae [28] = experiment: Antibacterial activity against Klebsiella pneumoniae BAA 2473 assessed as inhibition of bacterial growth in presence of 1 microg/ml of proteinase K (reference value: 1.56 to 3.13 microM); format: functional
Klebsiella pneumoniae [29] = experiment: Antibacterial activity against Klebsiella pneumoniae BAA 2473 assessed as inhibition of bacterial growth in presence of 10 microg/ml of proteinase K (reference value: 1.56 to 3.13 microM); format: functional
Klebsiella pneumoniae [30] = experiment: Bactericidal activity against Klebsiella pneumoniae BAA 2473 assessed as inhibition of bacterial growth in presence of 0.1 microg/ml of trypsin (reference value: 1.56 to 3.13 microM); format: functional
Klebsiella pneumoniae [31] = experiment: Bactericidal activity against Klebsiella pneumoniae BAA 2473 assessed as inhibition of bacterial growth in presence of 1 microg/ml of trypsin (reference value: 1.56 to 3.13 microM); format: functional
Klebsiella pneumoniae [32] = experiment: Bactericidal activity against Klebsiella pneumoniae BAA 2473 assessed as inhibition of bacterial growth in presence of 1 microg/ml of chymotrypsin (reference value: 1.56 to 3.13 microM); format: functional
Klebsiella pneumoniae [33] = experiment: Bactericidal activity against Klebsiella pneumoniae BAA 2473 assessed as inhibition of bacterial growth in presence of 10 microg/ml of chymotrypsin (reference value: 1.56 to 3.13 microM); format: functional
Klebsiella pneumoniae [34] = experiment: Bactericidal activity against Klebsiella pneumoniae BAA 2473 assessed as inhibition of bacterial growth in presence of 1 microg/ml of pepsin (reference value: 1.56 to 3.13 microM); format: functional
Klebsiella pneumoniae [35] = experiment: Bactericidal activity against Klebsiella pneumoniae BAA 2473 assessed as inhibition of bacterial growth in presence of 10 microg/ml of pepsin (reference value: 1.56 to 3.13 microM); format: functional
Klebsiella pneumoniae [36] = experiment: Bactericidal activity against Klebsiella pneumoniae BAA 2473 assessed as inhibition of bacterial growth in presence of 0.1 microg/ml of proteinase K (reference value: 1.56 to 3.13 microM); format: functional
Cell membrane = experiment: Induction of cell membrane depolarization in Klebsiella pneumoniae BAA 2473 assessed as increase in fluorescence intensity at 1 times MIC incubated for 40 mins by DiBAC4(3) fluorescent dye based assay; format: cell membranes

## CC(C)C[C@H](NC(=O)[C@H](CCCCN)NC(=O)[C@@H](CCCCN)NC(=O)[C@H](CC(C)C)NC(=O)[C@@H](N)Cc1ccccc1)C(=O)N[C@H](CC(C)C)C(=O)N[C@@H](CCCCN)C(=O)N[C@@H](C)C(=O)N[C@H](CC(C)C)C(=O)N[C@@H](Cc1ccccc1)C(=O)N[C@@H](CO)C(=O)N[C@H](C)C(=O)N1CCC[C@H]1C(=O)N[C@@H](CCCCN)C(=O)N[C@H](C)C(=O)N[C@@H](CC(C)C)C(=O)N[C@@H](CCCCN)C(=O)N[C@H](CCCNC(=N)N)C(=O)N[C@@H](CC(C)C)C(=O)N[C@@H](CC(C)C)C(=O)N[C@H](CCCNC(=N)N)C(=O)N[C@@H](CCCNC(=N)N)C(=O)N[C@@H](CCCNC(=N)N)C(=O)N[C@H](CCCNC(=N)N)C(=O)N[C@@H](CCCNC(=N)N)C(=O)O
Klebsiella aerogenes [1]
  MIC: 1.56 µM (≈ 4.8 µg/mL)
Salmonella typhimurium [2]
  MIC: 6.25 µM (≈ 19.2 µg/mL)
Salmonella enterica [3]
  MIC: 3.13 µM (≈ 9.64 µg/mL)
Vibrio vulnificus [4]
  MIC: 12.5 µM (≈ 38.5 µg/mL)
Yersinia enterocolitica [5]
  MIC: 3.13 µM (≈ 9.64 µg/mL)
Klebsiella pneumoniae [6]
  MIC: 0.78 µM (≈ 2.4 µg/mL)
[7]
  MIC: 1.56 µM (≈ 4.8 µg/mL)
Klebsiella aerogenes [8]
  MBC: 6.25 µM (≈ 19.2 µg/mL)
Salmonella typhimurium [9]
  MBC: 6.25 µM (≈ 19.2 µg/mL)
Salmonella enterica [10]
  MBC: 6.25 µM (≈ 19.2 µg/mL)
Yersinia enterocolitica [11]
  MBC: 3.13 µM (≈ 9.64 µg/mL)
Klebsiella pneumoniae [12]
  MBC: 25 µM (≈ 77 µg/mL)
[13]
  MBC: 1.56 µM (≈ 4.8 µg/mL)
Rhizopus arrhizus [14]
  MFC: 0.78 µM (≈ 2.4 µg/mL)
Escherichia coli [15]
  MIC: 0.78 µM
Klebsiella oxytoca [16]
  MIC: 3.13 µM
Vibrio vulnificus [17]
  MIC: 12.5 µM
Klebsiella pneumoniae [18]
  MIC: 1.56 µM
Escherichia coli [19]
  MBC: 0.78 µM
Acinetobacter baumannii
  MBC: 6.25 µM
Pseudomonas aeruginosa
  MBC: 6.25 µM
Klebsiella oxytoca [20]
  MBC: 3.13 µM
Vibrio vulnificus [21]
  MBC: 12.5 µM
Klebsiella pneumoniae [22]
  MBC: 1.56 µM
Enterococcus faecium
  MBC: 100 µM
Rhizopus arrhizus [23]
  MBC: 100 µM
Klebsiella pneumoniae [24]
  MIC: 1.56 µM
Klebsiella pneumoniae [25]
  MIC: 0.78 µM
Klebsiella pneumoniae [26]
  MIC: 0.78 µM
Klebsiella pneumoniae [27]
  MIC: 0.78 µM
Klebsiella pneumoniae [28]
  MIC: 0.78 µM
Klebsiella pneumoniae [29]
  MIC: 0.78 µM
Klebsiella pneumoniae [30]
  MBC: 0.78 µM
Klebsiella pneumoniae [31]
  MBC: 1.56 µM
Klebsiella pneumoniae [32]
  MBC: 0.78 µM
Klebsiella pneumoniae [33]
  MBC: 0.78 µM
Klebsiella pneumoniae [34]
  MBC: 0.78 µM
Klebsiella pneumoniae [35]
  MBC: 0.78 µM
Klebsiella pneumoniae [36]
  MBC: 0.78 µM
Cell membrane
  Activity: Active
